Reference: patent US11252963B2, “Pesticidally active pyrazole derivatives” (SYNGENTA PARTICIPATIONS AG, priority 2017, dated 2022)
Where two headings read alike, the source gives them in different places.

Legend:
Format in all cases: in vivo
[1] = test system: Diabrotica balteata (Corn root worm); assay: Diabrotica balteata (Corn root worm) mortality test on sprayed maize sprouts; conditions: 96 h
Procedure: Diabrotica balteata (Corn root worm):
Maize sprouts placed onto an agar layer in 24-well microtiter plates were treated with aqueous test solutions prepared from 10′000 ppm DMSO stock solutions by spraying. After drying, the plates were infested with L2 larvae (6 to 10 per well). The samples were assessed for mortality 4 days after infestation.

[2] = test system: Euschistus heros (Neotropical Brown Stink Bug); assay: Euschistus heros (Neotropical Brown Stink Bug): feeding/contact activity; conditions: 120 h
Procedure: Euschistus heros (Neotropical Brown Stink Bug): Feeding/Contact Activity
Soybean leaves on agar in 24-well microtiter plates were sprayed with aqueous test solutions prepared from 10,000 ppm DMSO stock solutions. After drying the leaves were infested with N2 nymphs. The samples were assessed for mortality 5 days after infestation.

[3] = test system: Myzus persicae (Green Peach Aphid); assay: Myzus persicae (Green Peach Aphid): feeding/contact activity; conditions: foliar, 144 h
Procedure: Myzus persicae (Green Peach Aphid): Feeding/Contact Activity
Sunflower leaf discs were placed onto agar in a 24-well microtiter plate and sprayed with aqueous test solutions prepared from 10,000 ppm DMSO stock solutions. After drying, the leaf discs were infested with an aphid population of mixed ages. The samples were assessed for mortality 6 days after infestation.

[4] = test system: Plutella xylostella (Diamond Back Moth); assay: Plutella xylostella (Diamond Back Moth): feeding/contact activity; conditions: 120 h
Procedure: Plutella xylostella (Diamond Back Moth): Feeding/Contact Activity
24-well microtiter plates with artificial diet were treated with aqueous test solutions prepared from 10′000 ppm DMSO stock solutions by pipetting. After drying, the plates were infested with L2 larvae (10 to 15 per well). The samples were assessed for mortality 5 days after infestation.

[5] = test system: Spodoptera littoralis (Egyptian Cotton Leaf Worm); assay: Spodoptera littoralis (Egyptian Cotton Leaf Worm): feeding/contact activity; conditions: foliar, 72 h
Procedure: Spodoptera littoralis (Egyptian Cotton Leaf Worm): Feeding/Contact Activity
Cotton leaf discs were placed onto agar in 24-well microtiter plates and sprayed with aqueous test solutions prepared from 10′000 ppm DMSO stock solutions. After drying the leaf discs were infested with five L1 larvae. The samples were assessed for mortality 3 days after infestation.

[6] = test system: Tetranychus urticae (Two-Spotted Spider Mite); assay: Tetranychus urticae (Two-Spotted Spider Mite): feeding/contact activity; conditions: foliar, 192 h, read-out: mortality on mixed population (mobile stages)
Procedure: Tetranychus urticae (Two-Spotted Spider Mite): Feeding/Contact Activity
Bean leaf discs on agar in 24-well microtiter plates were sprayed with aqueous test solutions prepared from 10′000 ppm DMSO stock solutions. After drying the leaf discs were infested with a mite population of mixed ages. The samples were assessed for mortality on mixed population (mobile stages) 8 days after infestation.

[7] = test system: Thrips tabaci (Onion Thrips); assay: Thrips tabaci (Onion Thrips): feeding/contact activity; conditions: foliar, 144 h
Procedure: Thrips tabaci (Onion Thrips): Feeding/Contact Activity
Sunflower leaf discs were placed on agar in 24-well microtiter plates and sprayed with aqueous test solutions prepared from 10′000 ppm DMSO stock solutions. After drying the leaf discs were infested with a thrips population of mixed ages. The samples were assessed for mortality 6 days after infestation.

[8] = application rate 200 ppm, maize sprouts sprayed, L2 larvae, assessed 4 days after infestation, read-out: mortality
[9] = application rate 200 ppm, soybean leaves sprayed, N2 nymphs, assessed 5 days after infestation, read-out: mortality
[10] = application rate 200 ppm, sunflower leaf discs sprayed, aphid population of mixed ages, assessed 6 days after infestation, read-out: mortality
[11] = application rate 200 ppm, artificial diet treated by pipetting, L2 larvae, assessed 5 days after infestation, read-out: mortality
[12] = application rate 200 ppm, cotton leaf discs sprayed, L1 larvae, assessed 3 days after infestation, read-out: mortality
[13] = application rate 200 ppm, bean leaf discs sprayed, mite population of mixed ages, assessed 8 days after infestation
[14] = application rate 200 ppm, sunflower leaf discs sprayed, thrips population of mixed ages, assessed 6 days after infestation, read-out: mortality

Measured: mortality at 200 ppm

COCN(C(=O)c1cc(-c2cnn(-c3c(OC(F)F)c(C(F)(F)C(F)(F)F)nn3C)c2)ccc1Cl)C1(C#N)CC1 [Compound 1, 2-chloro-N-(1-cyanocyclopropyl)-5-[1-[4-(difluoromethoxy)-2-methyl-5-(1,1,2,2,2-pentafluoroethyl)pyrazol-3-yl]pyrazol-4-yl]-N-(methoxymethyl)benzamide]
≥ 80%: [1]; [8] | [2]; [9] | [3]; [10] | [4]; [11] | [5]; [12] | [6]; [13] | [7]; [14]

C#CCN(C(=O)c1cc(-c2cnn(-c3c(OC(F)F)c(C(F)(F)C(F)(F)F)nn3C)c2)ccc1Cl)C1CC1 [Compound 2, 2-chloro-N-cyclopropyl-5-[1-[4-(difluoromethoxy)-2-methyl-5-(1,1,2,2,2-pentafluoroethyl)pyrazol-3-yl]pyrazol-4-yl]-N-prop-2-ynyl-benzamide]
≥ 80%: [1]; [8] | [2]; [9] | [3]; [10] | [4]; [11] | [5]; [12] | [6]; [13] | [7]; [14]

Cn1nc(C(F)(F)C(F)(F)F)c(OC(F)F)c1-n1cc(-c2ccc(Cl)c(C(=O)N(CC#N)C3(C#N)CC3)c2)cn1 [Compound 3, 2-chloro-N-(1-cyanocyclopropyl)-N-(cyanomethyl)-5-[1-[4-(difluoromethoxy)-2-methyl-5-(1,1,2,2,2-pentafluoroethyl)pyrazol-3-yl]pyrazol-4-yl]benzamide]
≥ 80%: [1]; [8] | [2]; [9] | [3]; [10] | [4]; [11] | [5]; [12] | [6]; [13] | [7]; [14]

CC(C)OC(=O)N(C(=O)c1cc(-c2cnn(-c3c(OC(F)F)c(C(F)(F)C(F)(F)F)nn3C)c2)ccc1Cl)C1(C#N)CC1 [Compound 5, isopropyl N-[2-chloro-5-[1-[4-(difluoromethoxy)-2-methyl-5-(1,1,2,2,2-pentafluoroethyl)pyrazol-3-yl]pyrazol-4-yl]benzoyl]-N-(1-cyanocyclopropyl)carbamate]
≥ 80%: [1] | [2]; in Glycine max | [3] | [4] | [5] | [6] | [7]

CCOC(=O)N(C(=O)c1cc(-c2cnn(-c3c(OC(F)F)c(C(F)(F)C(F)(F)F)nn3C)c2)ccc1Cl)C1(C#N)CC1 [Compound 6, ethyl N-[2-chloro-5-[1-[4-(difluoromethoxy)-2-methyl-5-(1,1,2,2,2-pentafluoroethyl)pyrazol-3-yl]pyrazol-4-yl]benzoyl]-N-(1-cyanocyclopropyl)carbamate]
≥ 80%: [1] | [2]; in Glycine max | [3] | [4] | [5] | [6] | [7]

COC(=O)N(C(=O)c1cc(-c2cnn(-c3c(OC(F)F)c(C(F)(F)C(F)(F)F)nn3C)c2)ccc1Cl)C1(C#N)CC1 [Compound 7, methyl N-[2-chloro-5-[1-[4-(difluoromethoxy)-2-methyl-5-(1,1,2,2,2-pentafluoroethyl)pyrazol-3-yl]pyrazol-4-yl]benzoyl]-N-(1-cyanocyclopropyl)carbamate]
≥ 80%: [1] | [2]; in Glycine max | [3] | [4] | [5] | [6]

CC(=O)N(C(=O)c1cc(-c2cnn(-c3c(OC(F)F)c(C(F)(F)C(F)(F)F)nn3C)c2)ccc1Cl)C1(C#N)CC1 [Compound 8, N-acetyl-2-chloro-N-(1-cyanocyclopropyl)-5-[1-[4-(difluoromethoxy)-2-methyl-5-(1,1,2,2,2-pentafluoroethyl)pyrazol-3-yl]pyrazol-4-yl]benzamide]
≥ 80%: [1]; [8] | [2]; [9] | [3]; [10] | [4]; [11] | [5]; [12] | [6]; [13]

Cn1nc(C(F)(F)C(F)(F)F)c(OC(F)F)c1-n1cc(-c2ccc(Cl)c(C(=O)N(CC3CC3)C3(C#N)CC3)c2)cn1 [Compound 9, 2-chloro-N-(1-cyanocyclopropyl)-N-(cyclopropylmethyl)-5-[1-[4-(difluoromethoxy)-2-methyl-5-(1,1,2,2,2-pentafluoroethyl)pyrazol-3-yl]pyrazol-4-yl]benzamide]
≥ 80%: [1]; [8] | [2]; [9] | [3]; [10] | [4]; [11] | [5]; [12] | [6]; [13] | [7]; [14]

Cn1nc(C(F)(F)C(F)(F)F)c(OC(F)F)c1-n1cc(-c2ccc(Cl)c(C(=O)N(CC(F)(F)F)C3(C#N)CC3)c2)cn1 [Compound 10, 2-chloro-N-(1-cyanocyclopropyl)-5-[1-[4-(difluoromethoxy)-2-methyl-5-(1,1,2,2,2-pentafluoroethyl)pyrazol-3-yl]pyrazol-4-yl]-N-(2,2,2-trifluoroethyl)benzamide]
≥ 80%: [1]; [8] | [3]; [10] | [4]; [11] | [5]; [12] | [7]; [14]

CC(C)CN(C(=O)c1cc(-c2cnn(-c3c(OC(F)F)c(C(F)(F)C(F)(F)F)nn3C)c2)ccc1Cl)C1(C#N)CC1 [Compound 11, 2-chloro-N-(1-cyanocyclopropyl)-5-[1-[4-(difluoromethoxy)-2-methyl-5-(1,1,2,2,2-pentafluoroethyl)pyrazol-3-yl]pyrazol-4-yl]-N-isobutyl-benzamide]
≥ 80%: [1]; [8] | [2]; [9] | [3]; [10] | [4]; [11] | [5]; [12] | [7]; [14]

CC(C)C(=O)N(C(=O)c1cc(-c2cnn(-c3c(OC(F)F)c(C(F)(F)C(F)(F)F)nn3C)c2)ccc1Cl)C1(C#N)CC1 [Compound 12, 2-chloro-N-(1-cyanocyclopropyl)-5-[1-[4-(difluoromethoxy)-2-methyl-5-(1,1,2,2,2-pentafluoroethyl)pyrazol-3-yl]pyrazol-4-yl]-N-(2-methylpropanoyl)benzamide]
≥ 80%: [1]; [8] | [2]; [9] | [3]; [10] | [4]; [11] | [5]; [12] | [6]; [13]

CCOCN(C(=O)c1cc(-c2cnn(-c3c(OC(F)F)c(C(F)(F)C(F)(F)F)nn3C)c2)cnc1Cl)C1(C#N)CC1 [Compound 14, 2-chloro-N-(1-cyanocyclopropyl)-5-[1-[4-(difluoromethoxy)-2-methyl-5-(1,1,2,2,2-pentafluoroethyl)pyrazol-3-yl]pyrazol-4-yl]-N-(ethoxymethyl)pyridine-3-carboxamide]
≥ 80%: [1]; [8] | [2]; [9] | [3]; [10] | [4]; [11] | [5]; [12] | [6]; [13] | [7]; [14]

Cn1nc(C(F)(F)C(F)(F)F)c(OC(F)F)c1-n1cc(-c2cnc(Cl)c(C(=O)N(CC#N)C3(C#N)CC3)c2)cn1 [Compound 15, 2-chloro-N-(1-cyanocyclopropyl)-N-(cyanomethyl)-5-[1-[4-(difluoromethoxy)-2-methyl-5-(1,1,2,2,2-pentafluoroethyl)pyrazol-3-yl]pyrazol-4-yl]pyridine-3-carboxamide]
≥ 80%: [1]; [8] | [2]; [9] | [3]; [10] | [4]; [11] | [5]; [12] | [6]; [13] | [7]; [14]
